Test results taken from patent US8338598B2, “Herbicidal pyrido[2,3-B]pyrazines and their use as herbicides” (Syngenta Limited, priority 2008, dated 2012).

Tests used:
Type in all cases: in vivo
Echinochloa crus-galli [1] = assay: Example B2 herbicidal action, pre-emergence, pots in glasshouse; conditions: evaluated after 13 days, 10=total damage to plant, 0=no damage to plant
Experimental: (§1) Seeds of a variety of test species were sown in standard soil in pots. After cultivation for one day (pre-emergence) or after 8 days cultivation (post-emergence) under controlled conditions in a glasshouse (at 24/16° C., day/night; 14 hours light; 65% humidity), the plants were sprayed with an aqueous spray solution derived from the formulation of the technical active ingredient in acetone/water (50:50) solution containing 0.5% Tween 20 (polyoxyethelyene sorbitan monolaurate, CAS RN 9005-64-5). The test plants were then grown in a glasshouse under controlled conditions in a glasshouse (at 24/16° C., day/night; 14 hours light; 65% humidity) and watered twice daily. After 13 days, the test was evaluated (10=total damage to plant; 0=no damage to plant).

Setaria faberi [2] = assay: as above; conditions: evaluated after 13 days, 10=total damage to plant, 0=no damage to plant
Experimental: as §1

Amaranthus retroflexus [3] = assay: as above; conditions: evaluated after 13 days, 10=total damage to plant, 0=no damage to plant
Experimental: as §1

Solanum nigrum [4] = assay: as above; conditions: evaluated after 13 days, 10=total damage to plant, 0=no damage to plant
Experimental: as §1

Ipomea hederaceae [5] = assay: as above; conditions: evaluated after 13 days, 10=total damage to plant, 0=no damage to plant
Experimental: as §1

Echinochloa crus-galli [6] = assay: Example B2 herbicidal action, post-emergence, pots in glasshouse; conditions: evaluated after 13 days, 10=total damage to plant, 0=no damage to plant
Experimental: as §1

Setaria faberi [7] = assay: as above; conditions: evaluated after 13 days, 10=total damage to plant, 0=no damage to plant
Experimental: as §1

Amaranthus retroflexus [8] = assay: as above; conditions: evaluated after 13 days, 10=total damage to plant, 0=no damage to plant
Experimental: as §1

Solanum nigrum [9] = assay: as above; conditions: evaluated after 13 days, 10=total damage to plant, 0=no damage to plant
Experimental: as §1

Ipomea hederaceae [10] = assay: as above; conditions: evaluated after 13 days, 10=total damage to plant, 0=no damage to plant
Experimental: as §1

test plants = assay: Example B1 herbicidal action, post-emergence, overall statement on the test plants; conditions: Example B1 protocol, 1000 g/ha, result in words
Experimental: Seeds of a variety of test species were sown in sterilised standard soil in seed trays each having 96 cells. After cultivation for 8 to 9 days cultivation (post-emergence) under controlled conditions in a climatic chamber (cultivation at 23/17° C., day/night; 13 hours light; 50-60% humidity), the plants were treated with an aqueous spray solution of 1000 mg/l of the active ingredient dissolved in 10% DMSO (dimethyl sulfoxide, CAS RN 67-68-5) as a solvent, equivalent to 1000 g/ha. The plants were grown in the climatic chamber after application at (24/19° C., day/night; 13 hours light; 50-60% humidity) and watered twice daily. After 9 days until the test was evaluated (10=total damage to plant, 0=no damage to plant)

SMILES	ECHCG, damage to plant (Echinochloa crus-galli [1]; 1000 g/ha)	SETFA, damage to plant (Setaria faberi [2]; 1000 g/ha)	AMARE, damage to plant (Amaranthus retroflexus [3]; 1000 g/ha)	SOLNI, damage to plant (Solanum nigrum [4]; 1000 g/ha)	IPOHE, damage to plant (Ipomea hederaceae [5]; 1000 g/ha)	ECHCG, damage to plant (Echinochloa crus-galli [6]; 1000 g/ha)	SETFA, damage to plant (Setaria faberi [7]; 1000 g/ha)	AMARE, damage to plant (Amaranthus retroflexus [8]; 1000 g/ha)	SOLNI, damage to plant (Solanum nigrum [9]; 1000 g/ha)	IPOHE, damage to plant (Ipomea hederaceae [10]; 1000 g/ha)	further results
Cn1nc(C(F)(F)F)c(-c2c(O)c3nccnc3[nH]c2=O)c1OC(F)F [Compound B26, 7-(5-difluoromethoxy-1-methyl-3-trifluoromethyl-1H-pyrazol-4-yl)-8-hydroxy-5H-pyrido[2,3-b]pyrazin-6-one]	1	0	1	0	0	6	8	5	3	3	
O=c1c(-c2cc(Cl)ncc2Cl)c(O)c2nccnc2n1CC(F)F [Compound A21, 7-(2,5-Dichloro-pyrid-4-yl)-5-(2,2-difluoro-ethyl)-8-hydroxy-5H-pyrido[2,3-b]pyrazin-6-one]	0	2	2	0	0	7	7	9	8	7	
CC(C)C(=O)Oc1c(-c2nn(C)nc2C(F)(F)F)c(=O)n(CC(F)F)c2nccnc12 [Compound B29]	1	3	4	2	1	3	7	8	7	7	
CC(C)(C)C(=O)Oc1c(-c2c(Cl)ccnc2Cl)c(=O)n(CC(F)F)c2nccnc12 [Compound A18, 2,2-Dimethyl-propionic acid 7-(2,4-dichloro-pyrid-3-yl)-5-(2,2-difluoro-ethyl)-6-oxo-5,6-dihydro-pyrido[2,3-b]pyrazin-8-yl ester]	7	5	6	9	6	7	7	10	9	9	
Cn1nc(C(F)(F)F)c(-c2c(O)c3nccnc3n(CC(F)F)c2=O)c1OC(F)F [Compound B25, 7-(5-difluoromethoxy-1-methyl-3-trifluoromethyl-1H-pyrazol-4-yl)-5-(2,2-difluoro-ethyl)-8-hydroxy-5H-pyrido[2,3-b]pyrazin-6-one]	8	8	10	7	6	8	8	8	10	8	
Cn1nc(-c2c(O)c3nccnc3n(CC(F)F)c2=O)c(C(F)(F)F)n1 [Compound B30]	1	2	7	2	3	6	7	9	9	8	
CCn1c(=O)c(-c2c(Cl)cncc2Cl)c(OC(=O)C(C)(C)C)c2nccnc21 [Compound A10, 2,2-Dimethyl-propionic acid 7-(3,5-dichloro-pyrid-4-yl)-5-ethyl-6-oxo-5,6-dihydro-pyrido[2,3-b]pyrazin-8-yl ester]	5	1	0	2	2	7	6	9	9	8	
CC(C)C(=O)Oc1c(-c2ccc(C(F)(F)F)nc2Cl)c(=O)n(CC(F)F)c2nccnc12 [Compound A30]											ECHCG, damage to plant (Echinochloa crus-galli [1]; 250 g/ha): 3; SETFA, damage to plant (Setaria faberi [2]; 250 g/ha): 0; AMARE, damage to plant (Amaranthus retroflexus [3]; 250 g/ha): 1; SOLNI, damage to plant (Solanum nigrum [4]; 250 g/ha): 1; IPOHE, damage to plant (Ipomea hederaceae [5]; 250 g/ha): 0; ECHCG, damage to plant (Echinochloa crus-galli [6]; 250 g/ha): 1; SETFA, damage to plant (Setaria faberi [7]; 250 g/ha): 4; AMARE, damage to plant (Amaranthus retroflexus [8]; 250 g/ha): 9; SOLNI, damage to plant (Solanum nigrum [9]; 250 g/ha): 6; IPOHE, damage to plant (Ipomea hederaceae [10]; 250 g/ha): 6
Cn1c(=O)c(-c2c(Cl)cncc2Cl)c(OC(=O)C(C)(C)C)c2nccnc21 [Compound A9, 2,2-Dimethyl-propionic acid 7-(3,5-dichloro-pyrid-4-yl)-5-methyl-6-oxo-5,6-dihydro-pyrido[2,3-b]pyrazin-8-yl ester]	5	0	0	1	5	7	4	8	8	8	
CC(C)(C)C(=O)Oc1c(-c2c(Cl)cncc2Cl)c(=O)n(CC(F)F)c2nccnc12 [Compound A11, 2,2-Dimethyl-propionic acid 7-(3,5-dichloro-pyrid-4-yl)-5-(2,2-difluoro-ethyl)-6-oxo-5,6-dihydro-pyrido[2,3-b]pyrazin-8-yl ester]	8	7	8	8	5	8	8	9	8	8	
O=c1c(-c2c(Cl)cncc2Cl)c(O)c2nccnc2n1CC(F)F [Compound A12, 7-(3,5-Dichloro-pyrid-4-yl)-5-(2,2-difluoro-ethyl)-8-hydroxy-5H-pyrido[2,3-b]pyrazin-6-one]	6	4	4	2	5	8	8	9	10	9	
O=c1c(-c2cnc(Cl)cc2Cl)c(O)c2nccnc2n1CC(F)F [Compound A19, 7-(4,6-Dichloro-pyrid-3-yl)-5-(2,2-difluoro-ethyl)-8-hydroxy-5H-pyrido[2,3-b]pyrazin-6-one]	5	0	7	0	1	6	4	10	10	8	
CC(C)(C)C(=O)Oc1c(-c2cnc(Cl)cc2Cl)c(=O)n(CC(F)F)c2nccnc12 [Compound A20, 2,2-Dimethyl-propionic acid 7-(4,6-dichloro-pyrid-3-yl)-5-(2,2-difluoro-ethyl)-6-oxo-5,6-dihydro-pyrido[2,3-b]pyrazin-8-yl ester]											ECHCG, damage to plant (Echinochloa crus-galli [1]; 250 g/ha): 3; SETFA, damage to plant (Setaria faberi [2]; 250 g/ha): 0; AMARE, damage to plant (Amaranthus retroflexus [3]; 250 g/ha): 1; SOLNI, damage to plant (Solanum nigrum [4]; 250 g/ha): 1; IPOHE, damage to plant (Ipomea hederaceae [5]; 250 g/ha): 0; ECHCG, damage to plant (Echinochloa crus-galli [6]; 250 g/ha): 7; SETFA, damage to plant (Setaria faberi [7]; 250 g/ha): 2; AMARE, damage to plant (Amaranthus retroflexus [8]; 250 g/ha): 10; SOLNI, damage to plant (Solanum nigrum [9]; 250 g/ha): 10; IPOHE, damage to plant (Ipomea hederaceae [10]; 250 g/ha): 10
CC(C)(C)C(=O)Oc1c(-c2ccc(Cl)nc2Cl)c(=O)n(CC(F)F)c2nccnc12 [Compound A16, 2,2-dimethyl-propionic acid 7-(2,6-dichloro-pyrid-3-yl)-5-(2,2-difluoro-ethyl)-6-oxo-5,6-dihydro-pyrido[2,3-b]pyrazin-8-yl ester]	2	0	0	5	2	6	6	10	9	7	
Cc1cc(-c2c(OC(=O)C(C)(C)C)c3nccnc3[nH]c2=O)n2nc(C)cc2n1 [Compound C2]											damage to the test plants (test plants): little or no damage
